For assay [1], the system named is NHDF normal human dermal fibroblasts cell line. Nature of the assay: MTT cell viability assay, NHDF. Conditions: 72 hours exposure, normal cells. The assay is classed as cell-based. How it is done:
(§1) All substances towards the A549, HepG2, MCF-7, and NHDF cell lines were evaluated by using the MTT approach. The collected data were utilized to compute the IC50 value and contrast it with the gold standard cisplatin anticancer medication.
(§2) Cellular viability or metabolic properties can be measured using the MTT assay, which is a powerful and credible method for anticancer properties. The anticancer efficacy of all test compounds was investigated by the MTT assay against A549, HepG2, MCF-7, and NHDF cell lines. As per the colorimetric approach, the IC50 findings of all test substances were evaluated as the % of cell viability/growth inhibition. […] Nevertheless, complex (1a) has the highest cytotoxic potential among others. The acquired findings were in the subsequent sequence as follows: (cisplatin) > (1a) > (2a) > (HL) (Figure 16 and Table 10). The cytotoxic effectiveness is dependent upon the DNA-binding modalities, the structure-activity relationship, as well as drug concentrations and incubation period exposure. […] As per Tweedy's chelation theory, charge equilibration happens as a result of coordination between the ligands and metal ions, which minimises the polarity of the metal ions and causes the capability of the test complexes to pass via the cell membrane lipid layer. Thus, it put off the synthesis of cell wall/protein/nucleic acids. Additionally, the results of DNA-binding tests using these complexes, including gel electrophoresis, UV-visible spectral titration, hydrodynamic, emission, and CV findings, were in good agreement with the findings of cytotoxicity. The expressions (46) and (47) were supported to measure the % of growth inhibition and cell viability. […]
(§3) A549, HepG2 MCF-7, and NHDF are represented as human lung cancer cell line, liver cancer cell line, breast cancer cell line, and normal human dermal fibroblasts cell line.(45) % Cytotoxiciy=1− Mean absorbance of Sample at 595 nm/Mean absorbance of Controlat 595 nm ×100, (46) Cellviability%=100−Cytotoxiciy%.

The subject of assay [2] is MCF-7 breast cancer cell line. Nature of the assay: MTT cell viability assay, MCF-7. The assay is classed as cell-based, human. How it is done: as §1, §2, §3
In assay [3] the test system is A549 human lung cancer cell line. In words: MTT cell viability assay, A549. The assay is classed as cell-based. How it is done:
as §1, §2, §3

Assay [4] deals with HepG2 liver cancer cell line. In words: MTT cell viability assay, HepG2. The assay is classed as cell-based, human. How it is done: as §1, §2, §3
(In general: Tetrazolium assays rely on reduction of a dye to a coloured formazan, in cell work by metabolically active cells.)

Molecules are shown by their SMILES.

As a reminder, the IC50 is the concentration needed to halve the response being measured.

Consider `[Cu+2].[O-]c1ccccc1N=Cc1ccc(N2CCOCC2)cc1.[O-]c1ccccc1N=Cc1ccc(N2CCOCC2)cc1.c1ccc(-c2ccccn2)nc1` [(1a), [Cu(L)2(bpy)]], for which the IC50 in assay [1] is 73.6 ± 3.7 µM; in assay [2] (72 hours exposure), 32.1 ± 1.6 µM; in assay [3] (72 hours exposure) it was 30.8 ± 1.5 µM; in assay [4] (72 hours exposure) it was 33.1 ± 1.7 µM.

On to `Oc1ccccc1N=Cc1ccc(N2CCOCC2)cc1` [(HL), 2-(4-morpholinobenzylideneamino)phenol], for which the IC50 in assay [1] (Homo sapiens, NHDF) worked out at 209 ± 10.4 µM; in assay [2] (Homo sapiens, MCF7, 72 hours exposure), 105 ± 5.3 µM; in assay [3] (Homo sapiens, A549, 72 hours exposure), 126 ± 6.3 µM; in assay [4] (Homo sapiens, HepG2, 72 hours exposure), 108 ± 5.4 µM.

For the origin of these results see article PMC9763021, “Comprehensive Assessment of Biomolecular Interactions of Morpholine-Based Mixed Ligand Cu(II) and Zn(II) Complexes of 2,2′-Bipyridine as Potential Anticancer and SARS-CoV-2 Agents: A Synergistic Experimental and Structure-Based Virtual Screening” (Bioinorganic Chemistry and Applications, 2022).
